The nature of data set [1]: Brain and plasma concentrations in an in vivo cassette mouse model. The arrangement: species or system male CD-1 mice. As to conditions: male, PO cassette, 2.5 mg/kg per compound. Here is the method:
The compounds of this invention were evaluated in an in vivo cassette mouse model to determine brain and plasma concentrations following oral dosing. This is an industry-standard and recognised means to assess brain penetration of small molecules (for recent literature article, refer to In vitro permeability analysis, pharmacokinetic and brain distribution study in mice of imperatorin, isoimperatorin and cnidilin in Radix Angelicae Dahuricae, Fitoterapia, Volume 85, March 2013 , Pages 144-153). It is also recognised that higher brain concentrations (and higher ratios of brain: plasma concentration) lead to greater exposure in the brain—this is clearly advantageous if the brain is the site of action.
For a single cassette study, male CD-1 mice were used (n=3 per timepoint, two timepoints: 1.0 hr and 3.0 hr).
5 compounds were dosed PO per cassette (dose level 2.5 mg/kg per compound, dose conc. 0.25 mg/ml, dose volume 10.0 ml/kg).
Formulation used to solubilize compounds: 10% DMSO/90% hydroxypropyl-β-cyclodextrin (20% w/v aqueous)
Sampling was terminal and plasma and brain matrices were generated. To prepare plasma samples, protein was precipitated using acetonitrile. To prepare brain samples, homogenisation and protein precipitation was performed with acetonitrile. Samples were analysed using HPLC-TOF MS using electrospray ionisation.

The subject of a further data set is MDA-MB-231 (luc) cells. Description: Control of brain metastases arising from MDA-MB-231 (luc) cells after intra-cardiac injection. In kind it is in vivo. The source says:
In order to test the efficacy of an inhibitor of S6K1 in preventing brain metastases arising from TNBC cells, an in vivo mouse model was established:
Using a luciferase-tagged TNBC cell line (MDA-MB-231 (luc)) it was possible to track the spread of metastatic cells to the brain and other major organs via mouse whole-body imaging.
The MDA-MB-231(luc) cell-line was derived from MDA-MB-231 cells originally purchased from ATCC. These cells were stably transfected with pGL4.51 (Promega) using Lipofectamine 2000 (Life Technologies). Stably transfected colonies were selected for using neomycin and the most highly expressing clone was expanded. The cells have similar in vivo growth characteristics as the parental MDA-MB-231 cells.
Female athymic mice (Hsd:Athymic Nude-Foxn1^nu) were purchased from Harlan (UK) and acclimatised for 7 days prior to study commencement. Animals were housed in
The dosing route was p.o. and the formulation was as follows: 10% DMSO/90% hydroxypropyl-β-cyclodextrin (20% w/v aqueous)
On day 0 animals were anaesthetized and injected with 1×10^5 MDA-MB-231 (luc) cells directly into the heart. Intra-cardiac injection was chosen as this method leads to brain metastases. On day +1 animals were imaged using a Xenogen IVIS machine (following IP injection of 150 mg/kg) of D-luciferin). Evidence of light only in the cardiac area was indicative of a failed implantation and these animals were removed from the study. The experiment was commenced with 7 animals per treatment group to guarantee 5 animals per group completed the study.
Animals were imaged on 3 occasions during the study: 24 hours following intracardiac injection, 35 days after implantation and at the end of the study (70 days after implantation). For imaging, animals were first injected i.p. with D-luciferin (150 mg/kg) and 10 minutes later the animals were imaged under anaesthesia.
At the end of the 70 days, animals were imaged using the same method as described at 35 days. Following this the animals were then sacrificed and brain, liver and lungs were removed and imaged individually for metastatic spread.

Another data set concerns the target p70S6K (h) (Homo sapiens, UniProt P23443). Description: Determination of p70S6 inhibitory activity (radiometric kinase assay). As to conditions: read-out: (a) p70S6K1 IC50. In kind it is biochemical. The protocol:
The ability of compounds of the invention to inhibit P70S6 kinase was determined using the protocol below.
20 mM MOPS, 1 mM EDTA, 0.01% Brij-35, 5% Glycerol, 0.1% b-mercaptoethanol, 1 mg/mL BSA
In a final reaction volume of 25 μL, p70S6K (h) (5-10 mU) is incubated with 8 mM MOPS pH 7.0, 0.2 mM EDTA, 100 μM KKRNRTLTV, 10 mM Mg acetate and [γ-33P-ATP] (specific activity approx. 500 cpm/pmol, concentration as required). The reaction is initiated by the addition of the MgATP mix. After incubation for 40 minutes at room temperature, the reaction is stopped by the addition of 5 μL of a 3% phosphoric acid solution. 10 μL of the reaction mixture is then spotted onto a P30 filtermat and washed three times for 5 minutes in 75 mM phosphoric acid and once in methanol prior to drying and scintillation counting.

For the next data set, the system named is MCF-7 cells. Description: MCF-7 proliferation assay (Alamar blue, 72 h). It is filed as cell-based. Conditions: Homo sapiens, MCF7, 72 h; read-out: (c) MCF-7 proliferation IC50. Here is the method:
The following assay was used to determine the ability of test compounds to inhibit cell growth.
The following protocol was used: • 1) MCF-7 cells were seeded in 96-well plates at 5000 cells per well and allowed to adhere overnight prior to addition of compound or vehicle control. • 2) Test compounds were prepared from 10 mM DMSO stocks to give a final concentration range of 100 μM, 30 μM, 10 μM, 3 μM, 1 μM, 0.3 μM, 0.1 μM, 0.03 μM, 0.01 μM and vehicle control. The DMSO content was constant at 1%. • 3) Test compounds were incubated with the cells for 72 h at 37° C. 5% CO2 in a humidified atmosphere. • 4) Alamar blue 10% (v/v) was then added and incubated for a further 6 h, and fluorescent product detected using the BMG FLUOstar plate reader. • 5) Data were analysed using a 4-parameter logistic equation in GraphPad Prism.
(The colour change of resazurin is a common sign of viable cells or microbes.)

The structures appear in SMILES notation. Like-named read-outs stand apart in the source and are kept apart here.

Sequence of p70S6K (h) (P23443 whole entry): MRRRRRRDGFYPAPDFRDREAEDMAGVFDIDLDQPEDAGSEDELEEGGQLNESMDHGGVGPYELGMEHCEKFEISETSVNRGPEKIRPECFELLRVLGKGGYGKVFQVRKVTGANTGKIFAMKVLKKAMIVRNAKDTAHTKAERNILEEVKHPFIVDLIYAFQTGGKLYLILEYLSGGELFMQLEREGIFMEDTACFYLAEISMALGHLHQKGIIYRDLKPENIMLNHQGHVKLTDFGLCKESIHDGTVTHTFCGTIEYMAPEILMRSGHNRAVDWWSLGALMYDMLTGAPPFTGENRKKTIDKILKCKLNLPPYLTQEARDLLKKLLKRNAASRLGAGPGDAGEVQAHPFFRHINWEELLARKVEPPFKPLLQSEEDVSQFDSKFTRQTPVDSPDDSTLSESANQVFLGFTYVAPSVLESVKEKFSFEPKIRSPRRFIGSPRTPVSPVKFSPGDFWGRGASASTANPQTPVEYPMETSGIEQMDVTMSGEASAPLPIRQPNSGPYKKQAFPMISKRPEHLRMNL

`C[C@@H](Nc1cnc2cc(-c3cn[nH]c3)ccc2n1)c1cccc(Cl)c1` [Example 15]: the concentration at 3 h in data set [1] (CD-1, brain, read-out: (d) Brain conc. at 3 hours) came out at 2.43 µM. In data set [1] (CD-1, brain, read-out: (d) Brain: Plasma ratio at 3 hours), the Kp at 3 h was 2. Besides, the concentration at 3 h in data set [1] (CD-1, plasma, read-out: (d) Plasma conc. at 3 hours) worked out at 1.19 µM. In the data set with MDA-MB-231 (luc) cells (125 mg/kg p.o. BID x 70 days), the “Incidence of metastasis Brain” value turned out to be 0%, the “Incidence of metastasis Liver” value is on record as 0%, the “Incidence of metastasis Lung” value amounted to 40% and the “No. deaths on study” value worked out at 0. For the same compound, in the data set on MDA-MB-231 (luc) cells (125 mg/kg p.o. BID, at 35 days), the “Animals with visible metastases, whole body imaging” value is recorded as 0 out of 5. Moreover, the Tolerability entry in the data set with MDA-MB-231 (luc) cells (70 consecutive days of BID dosing, no treatment related deaths or adverse clinical signs) is reported as “well-tolerated”. The IC50 at p70S6K (h) is 0.006 µM. The IC50 in the data set with MCF-7 cells was 12 µM.

These data come from US10144726B2, “Modulators of the p70S6 kinase for use in the treatment of brain disorders and triple-negative breast cancer” (SENTINEL ONCOLOGY LIMITED, priority 2015, dated 2018).
